Test results published in the NIST ThermoML archive (doi:10.1021/je8008182).

Experiment: xn = mol fraction of the nth substance listed
Details: 101 kPa, Liquid; for viscosity: Capillary tube (Ostwald / Ubbelohde) method; for mass density: Pycnometric method

Cc1ccncc1 [4-methylpyridine] + O
Details | mass density [kg/m3] | viscosity [mPa·s]
298.15 K, x1 = 0.0211 | 996.2 | 1.172
298.15 K, x1 = 0.0489 | 993.6 | 1.499
298.15 K, x1 = 0.1143 | 991.3 | 2.141
298.15 K, x1 = 0.225 | 984.8 | 2.602
298.15 K, x1 = 0.3111 | 983 | 2.521
298.15 K, x1 = 0.4 | 978.9 | 2.202
298.15 K, x1 = 0.5 | 970.4 | 1.88
298.15 K, x1 = 0.6353 | 964.1 | 1.539
298.15 K, x1 = 0.75 | 961.4 | 1.379
298.15 K, x1 = 0.9 | 958.7 | 1.09
298.15 K, x1 = 1 | 955.4 | 0.8723
303.15 K, x1 = 0.0211 | 994.2 | 1.037
303.15 K, x1 = 0.0489 | 991.2 | 1.325
303.15 K, x1 = 0.1143 | 987.9 | 1.844
303.15 K, x1 = 0.225 | 981.2 | 2.238
303.15 K, x1 = 0.3111 | 978.7 | 2.164
303.15 K, x1 = 0.4 | 972.1 | 1.904
303.15 K, x1 = 0.5 | 965.4 | 1.657
303.15 K, x1 = 0.6353 | 959.8 | 1.381
303.15 K, x1 = 0.75 | 956.4 | 1.16
303.15 K, x1 = 0.9 | 953.8 | 0.9871
303.15 K, x1 = 1 | 951.1 | 0.8175
308.15 K, x1 = 0.0211 | 992.1 | 0.9037
308.15 K, x1 = 0.0489 | 988.3 | 1.165
308.15 K, x1 = 0.1143 | 984.5 | 1.58
308.15 K, x1 = 0.225 | 977.6 | 1.924
308.15 K, x1 = 0.3111 | 974.2 | 1.9
308.15 K, x1 = 0.4 | 970.7 | 1.789
308.15 K, x1 = 0.5 | 964.9 | 1.595
308.15 K, x1 = 0.6353 | 955.3 | 1.247
308.15 K, x1 = 0.75 | 950.5 | 1.068
308.15 K, x1 = 0.9 | 946 | 0.7846
308.15 K, x1 = 1 | 941.3 | 0.7774
313.15 K, x1 = 0.0211 | 990 | 0.8272
313.15 K, x1 = 0.0489 | 986 | 1.044
313.15 K, x1 = 0.1143 | 980.9 | 1.4
313.15 K, x1 = 0.225 | 973.2 | 1.682
313.15 K, x1 = 0.3111 | 969.5 | 1.649
313.15 K, x1 = 0.4 | 965.9 | 1.561
313.15 K, x1 = 0.5 | 960.5 | 1.419
313.15 K, x1 = 0.6353 | 950.5 | 1.129
313.15 K, x1 = 0.75 | 945.9 | 0.9708
313.15 K, x1 = 0.9 | 941.6 | 0.7395
313.15 K, x1 = 1 | 936.6 | 0.7368
318.15 K, x1 = 0.0211 | 987.5 | 0.7494
318.15 K, x1 = 0.0489 | 983.3 | 0.9363
318.15 K, x1 = 0.1143 | 977.1 | 1.234
318.15 K, x1 = 0.225 | 969 | 1.467
318.15 K, x1 = 0.3111 | 965 | 1.441
318.15 K, x1 = 0.4 | 961.2 | 1.365
318.15 K, x1 = 0.5 | 955.7 | 1.263
318.15 K, x1 = 0.6353 | 945.9 | 1.019
318.15 K, x1 = 0.75 | 941.4 | 0.8874
318.15 K, x1 = 0.9 | 937 | 0.6952
318.15 K, x1 = 1 | 932.1 | 0.6855
323.15 K, x1 = 0.0211 | 985 | 0.6775
323.15 K, x1 = 0.0489 | 980.3 | 0.8486
323.15 K, x1 = 0.1143 | 973.4 | 1.099
323.15 K, x1 = 0.225 | 964.8 | 1.304
323.15 K, x1 = 0.3111 | 960.7 | 1.279
323.15 K, x1 = 0.4 | 956.5 | 1.207
323.15 K, x1 = 0.5 | 951 | 1.136
323.15 K, x1 = 0.6353 | 941.4 | 0.9623
323.15 K, x1 = 0.75 | 936.7 | 0.8112
323.15 K, x1 = 0.9 | 932.5 | 0.6516
323.15 K, x1 = 1 | 927.7 | 0.6505
328.15 K, x1 = 0.0211 | 983 | 0.6136
328.15 K, x1 = 0.0489 | 977.3 | 0.762
328.15 K, x1 = 0.1143 | 969.5 | 0.9781
328.15 K, x1 = 0.225 | 960.4 | 1.147
328.15 K, x1 = 0.3111 | 956 | 1.119
328.15 K, x1 = 0.4 | 952 | 1.069
328.15 K, x1 = 0.5 | 946.3 | 1.007
328.15 K, x1 = 0.6353 | 936.7 | 0.8648
328.15 K, x1 = 0.75 | 932.1 | 0.7423
328.15 K, x1 = 0.9 | 927.8 | 0.6014
328.15 K, x1 = 1 | 923.2 | 0.5905
333.15 K, x1 = 0.0211 | 979.3 | 0.5649
333.15 K, x1 = 0.0489 | 974.1 | 0.6555
333.15 K, x1 = 0.1143 | 965.8 | 0.8941
333.15 K, x1 = 0.225 | 956.4 | 1.037
333.15 K, x1 = 0.3111 | 951.4 | 1.008
333.15 K, x1 = 0.4 | 947.5 | 0.9636
333.15 K, x1 = 0.5 | 941.6 | 0.9199
333.15 K, x1 = 0.6353 | 931.9 | 0.7522
333.15 K, x1 = 0.75 | 927.3 | 0.6899
333.15 K, x1 = 0.9 | 923 | 0.5378
333.15 K, x1 = 1 | 918.5 | 0.5329
338.15 K, x1 = 0.0211 | 976.3 | 0.5403
338.15 K, x1 = 0.0489 | 970.8 | 0.6149
338.15 K, x1 = 0.1143 | 961.7 | 0.8036
338.15 K, x1 = 0.225 | 952.2 | 0.9466
338.15 K, x1 = 0.3111 | 946.9 | 0.9064
338.15 K, x1 = 0.4 | 942.8 | 0.8656
338.15 K, x1 = 0.5 | 936.7 | 0.8403
338.15 K, x1 = 0.6353 | 927.5 | 0.6948
338.15 K, x1 = 0.75 | 922.6 | 0.641
338.15 K, x1 = 0.9 | 918.5 | 0.4964
338.15 K, x1 = 1 | 914 | 0.4815
